Data on 6 molecules can be found in publication PMC5617480 (Oncotarget, 2017).

Bounds are passed on as bounds.

Test [1] concerns FPu18T (DNA, G4) AGGGTGGGGAGGGTGGGG
The test is described as follows: FRET melting. The following applies: 100 mM K+; 10 mM Tris-HCl, pH 7.35; 2.0 μM compound, 1.0 μM DNA.

A further test concerns HeLa cells. Set-up: method as in earlier work. The following applies: 48 h, ref [1]; cited from earlier work.
A further test relates to BEL-7402 cells. The arrangement: method as in earlier work. The following applies: BEL-7402, 48 h; ref [1]; cited from earlier work.
The next test relates to HL-7702 normal cells. The following applies: ref [1], cited from earlier work; for selectivity index factor, IC50 (normal HL-7702 cells)/IC50 (BEL-7404 tumor cells): 48 h; for IC50: HL-7702, 48 h.
The next test deals with Pu27 (c-myc) G4. The arrangement: method as in earlier work. The following applies: ref [1], cited from earlier work; for ctDNADC50/Pu27DC50: FID selectivity ratio; for Pu27DC50: FID.
Test [2] has as its system HTG21 (human telomeric) G4. The arrangement: method as in earlier work. The following applies: ref [1], cited from earlier work; for ctDNADC50/HTG21DC50: FID selectivity ratio; for HTG21DC50: FID.
The subject of another test is c-kit-2. The experiment in a line: FID assay. It is filed as binding. The following applies: for c-kit-2DC50: FID; for ctDNADC50/c-kit-2DC50: FID selectivity ratio.
Test [3] has as its system HTG21 / G4-HTG21 human telomeric DNA. The experiment in a line: CD spectroscopy. The following applies: DNA 10 μM, compound 20 μM. It is filed as binding. Set-up: key to Extent of change at 290―295 nm (%): “—”represents no obvious changes in the peaks. Here is the method:
We asked whether chiral platinum(II) complexes 4–6 have the ability to bind to G-quadruplex DNA. To address this, FRET assays, CD spectroscopy, G4-FID assays, and fluorescence titration analysis were performed. […] For G4-HTG21, the ^G4DC50 values of complexes 4–6 were 1.23, 1.26 and 0.99 μM, respectively; while, for G4-Pu27, the ^G4DC50 values were 1.01, 0.89, and 0.82 μM, respectively. In addition, the ^ctDNADC50/^G4DC50 ratio of the HTG21 and Pu27 G4s treated with complexes 4–6 was in the range of 50.54-90.65 and 71.56-110.67 folds, respectively. To further evaluate the binding ability of complexes 4–6 to Pu27 and HTG21G4s, CD spectroscopy and fluorescence titration analysis were performed. […] The quenching ability of complexes 4–6 to HTG21 and Pu27 G4 DNA fluorescence can be quantitatively estimated by their respective quenching constant (Kq), which was derived from the Stern-Volmer quenching equation. […] Finally, the selective binding of complexes 4–6 towards G4 DNA was analyzed by FRET-melting assays. […] In contrast, the ΔTm value for the F32T+H20M duplex DNA in the presence of complexes 4–6 was 1.18, 1.34, and 0.78 °C under the same conditions (Figure 4A). Altogether, our data indicated complexes 4–6, especially complex 6, is the best binder to G4 DNA, which caused DNA complex displaying the highest thermodynamic stability. […]
Supplementary Figure 21: CD spectra of Human Telomeric DNA (10 μM) in the absence of K+ (10 mM pH 7.35 Tris-
HCl) upon addition of compounds (20 μM). […]
Supplementary Figure 22: CD spectra of Human Telomeric G-quadruplex DNA (10 μM) in the presence of K + (TBS
buffer, containing 1% DMSO, 100 mM KCl, and 10 mM pH 7.35 Tris-HCl) upon addition of compounds (20 μM). […]

For a further test, the system named is Pu27 / G4-Pu27 DNA. The test is described as follows: CD spectroscopy. The following applies: DNA 10 μM, compound 20 μM; for Extent of change at 250―265 nm (%): given with ↓; for Extent of change at 290―295 nm (%): Pu27 (G4-Pu27). Type of test: binding. Set-up: key to Extent of change at 290―295 nm (%): “—”represents no obvious changes in the peaks. Here is the method:
We asked whether chiral platinum(II) complexes 4–6 have the ability to bind to G-quadruplex DNA. To address this, FRET assays, CD spectroscopy, G4-FID assays, and fluorescence titration analysis were performed. […] For G4-HTG21, the ^G4DC50 values of complexes 4–6 were 1.23, 1.26 and 0.99 μM, respectively; while, for G4-Pu27, the ^G4DC50 values were 1.01, 0.89, and 0.82 μM, respectively. In addition, the ^ctDNADC50/^G4DC50 ratio of the HTG21 and Pu27 G4s treated with complexes 4–6 was in the range of 50.54-90.65 and 71.56-110.67 folds, respectively. To further evaluate the binding ability of complexes 4–6 to Pu27 and HTG21G4s, CD spectroscopy and fluorescence titration analysis were performed. […] The quenching ability of complexes 4–6 to HTG21 and Pu27 G4 DNA fluorescence can be quantitatively estimated by their respective quenching constant (Kq), which was derived from the Stern-Volmer quenching equation. […] Finally, the selective binding of complexes 4–6 towards G4 DNA was analyzed by FRET-melting assays. […] In contrast, the ΔTm value for the F32T+H20M duplex DNA in the presence of complexes 4–6 was 1.18, 1.34, and 0.78 °C under the same conditions (Figure 4A). Altogether, our data indicated complexes 4–6, especially complex 6, is the best binder to G4 DNA, which caused DNA complex displaying the highest thermodynamic stability.
www.impactjournals.com/oncotarget/ Oncotarget, Supplementary Materials 2017 […]
Supplementary Figure 23: CD spectra of Pu27 DNA (10 μM) in the absence of K+ upon addition of compounds (20 μM).

Where [4] appears, read: G4-HTG21 (presence of K+), given with ↓.
The mark [5] stands for this setting: HTG21 (absence of K+), given with ↓.

Regarding `O=C(NCC(O)CO)c1cnc2c3c(cccc13)-c1ccccc1C2=O.[Cl-].[Cl-].[Pt+2]` (racemic) [ligand 1, R/S-(±)-FOA], the ΔTm in [1] is 19.15 °C. For the same molecule, the IC50 in the test on HeLa cells was 25.7 ± 2.2 µM. Further, in the test on BEL-7402 cells, the IC50 was 30.4 ± 1.5 µM. In the test with HL-7702 normal cells, the “selectivity index factor, IC50 (normal HL-7702 cells)/IC50 (BEL-7404 tumor cells)” value (shortened to “selectivity index factor, IC50”) is reported as more than 5.8 and the IC50 was more than 100 µM. Also, in the test with Pu27 (c-myc) G4, the ctDNADC50/Pu27DC50 is 39.24 and the Pu27DC50 is 1.63 µM. In test [2], the ctDNADC50/HTG21DC50 was 25.79 and the HTG21DC50 was 2.48 µM.
As for `O=C(NC[C@@H](O)CO)c1cnc2c3c(cccc13)-c1ccccc1C2=O.[Cl-].[Cl-].[Pt+2]` [ligand 2, R-(+)-FOA], the ΔTm in [1] turned out to be 16.66 °C. The IC50 in the test on HeLa cells was 28.5 ± 0.3 µM. In addition, the concentration for half-maximal inhibition (IC50) in the test with BEL-7402 cells is 68.6 ± 0.8 µM. In the test with HL-7702 normal cells, the “selectivity index factor, IC50” value was more than 4.9 and the IC50 is more than 100 µM. Further, in the test on Pu27 (c-myc) G4, the ctDNADC50/Pu27DC50 is 22.59 and the Pu27DC50 was 1.77 µM. In test [2], the ctDNADC50/HTG21DC50 is 17.78 and the HTG21DC50 was 2.25 µM.
Turning to `O=C(NC[C@H](O)CO)c1cnc2c3c(cccc13)-c1ccccc1C2=O.[Cl-].[Cl-].[Pt+2]` [ligand 3, S-(–)-FOA], in [1], the ΔTm was determined as 23.01 °C. Also, in the test on HeLa cells, the IC50 was 22.9 ± 0.7 µM. In addition, in the test on BEL-7402 cells, the IC50 is 28.5 ± 2.4 µM. For the same molecule, in the test with HL-7702 normal cells, the “selectivity index factor, IC50” value is recorded as 5.3 and the IC50 is 81.4 ± 2.7 µM. Also, in the test with Pu27 (c-myc) G4, the ctDNADC50/Pu27DC50 is on record as 62.81 and the Pu27DC50 is 1.43 µM. In addition, in [2], the ctDNADC50/HTG21DC50 is 48.55 and the HTG21DC50 is 1.85 µM.
On to cis-[PtCl2(R-(+)-FOA)] [complex 5], for which the c-kit-2DC50 in the test with c-kit-2 was 3.08 µM. In addition, the ctDNADC50/c-kit-2DC50 in the test on c-kit-2 is 20.68. In addition, the “Extent of change at 250―265 nm (%)” value in test [3] (setting [4]) was 52.31%; in test [3] (setting [5]), 62.38%; in the test with Pu27 / G4-Pu27 DNA (G4-Pu27 (presence of K+)) it was 57.01%; with Pu27 / G4-Pu27 DNA (Pu27 (absence of K+)) it was 62.63%. For the same molecule, the figures for the “Extent of change at 290―295 nm (%)” value (in test [3] (setting [4]); in test [3] (HTG21 (absence of K+)); in the test with Pu27 / G4-Pu27 DNA) were 9.76%, “—” and “—”, respectively.
Take cis-[PtCl2(R/S-(±)-FOA)] [complex 4]: the c-kit-2DC50 in the test on c-kit-2 turned out to be 2.48 µM. For the same molecule, in the test on c-kit-2, the ctDNADC50/c-kit-2DC50 is on record as 30.59. In addition, the “Extent of change at 250―265 nm (%)” value in test [3] (setting [4]) is recorded as 50.08%; in [3] (setting [5]) it was 73.35%; in the test with Pu27 / G4-Pu27 DNA (G4-Pu27 (presence of K+)) it was 67.47%; in the test on Pu27 / G4-Pu27 DNA (Pu27 (absence of K+)) it was 72.16%. Moreover, the “Extent of change at 290―295 nm (%)” value in [3] (setting [4]) is given as 16.44%; in test [3] (HTG21 (absence of K+)), “—”; in the test with Pu27 / G4-Pu27 DNA, “—”.
In the test on c-kit-2, cis-[PtCl2(S-(–)-FOA)] [complex 6] yielded a c-kit-2DC50 of 4.78 µM. Besides, the ctDNADC50/c-kit-2DC50 in the test on c-kit-2 was determined as 18.98. Besides, the “Extent of change at 250―265 nm (%)” value stood at 56.31% in test [3] (setting [4]), 73.98% in [3] (setting [5]), 76.23% with Pu27 / G4-Pu27 DNA (G4-Pu27 (presence of K+)) and 80.88% in the test with Pu27 / G4-Pu27 DNA (Pu27 (absence of K+)). Also, the “Extent of change at 290―295 nm (%)” value in test [3] (setting [4]) is reported as 19.43%; in test [3] (HTG21 (absence of K+)), “—”; in the test with Pu27 / G4-Pu27 DNA, “—”.
